Assay results from article PMC3128011, “Central nervous system exposure of next generation quinoline methanols is reduced relative to mefloquine after intravenous dosing in mice” (Malaria Journal, 2011).
Values after ≈ are worked out from the molar mass of the structure shown. Like-named read-outs stand apart in the source and are kept apart here.

Legend:
[1] = Brain and plasma concentrations after IV dosing in mice (LCMS/MS); free brain level from equilibrium dialysis fu; type: in vivo; details: male FVB mice, IV 5 mg/kg; for Maximum whole brain concentration: sampled 5 min, 1, 6, 24 h; for Maximum free brain concentration: whole brain concentration x fu from brain homogenate equilibrium dialysis; for remaining at 24 h: mouse, plasma, 24 h relative to the 5 minute time point, read-out: Residual plasma concentration at 24 h (24h % Remaining)
Procedure: All in vivo studies were conducted in accordance with protocols approved by the Victorian College of Pharmacy, Animal Ethics Committee. Male, six week old FVB mice were obtained from the Animals Resources Center (Perth, Western Australia) and provided with food and water ad libitum. Mice were administered a 50 μL bolus injection of mefloquine, its enantiomers or one of twenty five quinoline methanol compounds by tail vein injection (dosing solution concentration 2.8 mg/ml) for a nominal dose of 5 mg/kg. The compounds were prepared in 5% DMSO in 5% glucose solution buffered to a pH of 3-5 using citrate or acetate as appropriate based on an assessment of the lipophilicity and pKa of the compound. At 5 min, 1 h, 6 h or 24 h post-dosing, mice were anaesthetized with inhaled isoflurane (3%) approximately 3-4 minutes prior to blood and brain harvest. Blood was collected by cardiac puncture from groups of 2-3 mice and the whole brain was removed. The whole brains were placed into preweighed polypropylene vials and snap frozen prior to storage along with the plasma samples at -20°C until analysis. On the day of analysis, the whole brain was homogenized in three parts of aqueous solution containing 0.1 M EDTA and 0.4 g/L KF (inhibitors of hydrolytic enzymes to reduce the potential for ex vivo tissue-mediated degradation of the test compounds). Calibration standards were prepared by spiking blank brain homogenate and blank plasma with the test compound. Both samples and standards were processed by adding acetonitrile (to precipitate proteins) and centrifuged to separate the supernatant for analysis. An aliquot of the supernatant from each brain homogenate and plasma samples were analysed by UPLC/MS/MS on either a Quattro Premier XE, a Quattro Ultima Pt or a Xevo XT Mass Spectrometer (Waters Corporation, USA).
The unbound fraction of each analog in mouse brain homogenate was determined in vitro using equilibrium dialysis according to methodology reported previously. In brief, a 96 well equilibrium dialysis apparatus was used to determine the unbound fraction in brain homogenate for each compound (HT Dialysis LLC, Gales Ferry, CT). Membranes (12-14 kDA cut-off) were conditioned in deionized water for 60 minutes, followed by conditioning in 80:20 deionized water:ethanol for 20 minutes, and then rinsed in artificial cerebrospinal fluid (CSF) before use. Mouse brain was removed from the freezer and allowed to thaw on the day of experiment. Thawed brain tissue was then homogenized with artificial CSF to a final composition of 1:2 brain:artificial CSF using a Covaris S2 (K Biosciences, Hoddesdon, UK). Diluted brain homogenate was then spiked with the test compound (10 ug/g), and 150 μL aliquots (n = 6 replicate determinations) loaded into the 96-well equilibrium dialysis plate. Dialysis vs artificial CSF (150 μL) was carried out for 5 hours in a temperature controlled incubator at ca. 37°C (Barworld Scientific Ltd, UK) using an orbital microplate shaker at 125 revolutions/minute (Barworld scientific Ltd, UK). At the end of the incubation period, aliquots of brain homogenate or artificial CSF were transferred to micronic tubes (Micronic B.V., the Netherlands) and the composition in each tube balanced with control fluid, such that the volume of artificial CSF to brain was the same. Sample extraction was performed by the addition of 400 μL of acetonitrile containing an appropriate internal standard. Samples were allowed to mix for 1 minute and then centrifuged at 3000 rpm in 96-well blocks for 15 minutes (Allegra X12-R, Beckman Coulter, USA). All samples were then analysed by UPLC/MS/MS on a Quattro Premier XE Mass Spectrometer (Waters Corporation, USA). The unbound fraction in brain was determined as the ratio of the peak area in artificial CSF to that in brain, with correction for dilution factor according to eq.1 [14].(1) [drawing 1] […]

[2] = test system: P. falciparum strain W2; assay: Plasmodium falciparum susceptibility assay (labeled hypoxanthine); type: cell-based; details: for IC90: Plasmodium falciparum; for Potency against P. falciparum in words: in vitro
Procedure: The in vitro activities of quinoline methanols against P. falciparum strains W2, D6, TM91C235, and TM90C2A were evaluated using the traditional labeled hypoxanthine assay of Desjardins et al as modified by Milhous et al. These four P. falciparum strains were selected since they have various levels of resistance to conventional anti-malarials. W2 is chloroquine resistant and mefloquine sensitive, D6 is chloroquine sensitive but naturally less susceptible to mefloquine, TM91C235 is resistant to mefloquine, chloroquine, and pyrimethamine as is TM90C2A, however this latter parasite is a two pfmdr1 copy strain (pfmdr1 amplification has been associated with clinical mefloquine resistance). Mefloquine is routinely screened in these assays to ensure the validity. Historical values for mefloquine against all the strains are reported elsewhere. The focus of this study was the mefloquine-sensitive strain W2, however values for the other strains for all the compounds are reported in the Supplementary Information.

[3] = Half-life after oral dosing (data not shown); type: in vivo

| SMILES | Maximum whole brain concentration [1] [ng/g] | Maximum free brain concentration [1] [ng/g] | remaining at 24 h [1] [%] | Brain concentrations (free and whole) relative to mefloquine, in words [1] | Potency against P. falciparum in words [2] | also measured |
| --- | --- | --- | --- | --- | --- | --- |
| O[C@H](c1cc(C(F)(F)F)nc2c(C(F)(F)F)cccc12)[C@@H]1CCCCN1 (single isomer, unassigned) [(+) mefloquine enantiomer, reference compound] | 1159 | 2.5 |  |  |  |  |
| OC(c1cc(C(F)(F)F)nc2c(C(F)(F)F)cccc12)C1CCCCN1 (single isomer, unassigned; (-)) [(-) mefloquine enantiomer, reference compound] |  |  |  |  |  | Maximum whole brain concentration ([1]; 5 mg/kg): 2249 ng/g; Maximum free brain concentration ([1]; 5 mg/kg): 5.2 ng/g |
| OC(c1cc(C(F)(F)F)nc2c(C(F)(F)F)cccc12)C1CCCCN1 (centres unmarked) [Mefloquine, mefloquine] |  |  | 35 |  |  | Maximum whole brain concentration ([1]; listed as MQ, 5 mg/kg): 1807 ng/g; Maximum free brain concentration ([1]; listed as MQ, 5 mg/kg): 4.9 ng/g; IC90 ([2]; mefloquine-sensitive W2 strain of P. falciparum, read-out: IC90 W2): 0.01 mg/L (≈ 0.0264 µM) |
| CCCCNCC(O)c1cc(C(F)(F)F)nc2c(C(F)(F)F)cccc12 (centres unmarked) [WR177000] |  |  |  | much higher | most active |  |
| CNCC(O)c1cc(C(F)(F)F)nc2c(C(F)(F)F)cccc12 (centres unmarked) [WR308245] |  |  |  | much higher | most active |  |
| CN(C)CC(O)c1cc(C(F)(F)F)nc2c(C(F)(F)F)cccc12 (centres unmarked) [WR308246] |  |  |  | much higher | most active |  |
| CC(C)NCC(O)c1cc(C(F)(F)F)nc2c(C(F)(F)F)cccc12 (centres unmarked) [WR308257] |  |  |  | much higher | most active |  |
| OC(CN1CCCCC1)c1cc(C(F)(F)F)nc2c(C(F)(F)F)cccc12 (centres unmarked) [WR308265] |  |  |  | much higher | most active |  |
| CSCCCNCC(O)c1cc(C(F)(F)F)nc2c(C(F)(F)F)cccc12 (centres unmarked) [WR308278] |  |  |  | much higher | most active |  |
| CCC(C)CNCC(O)c1cc(C(F)(F)F)nc2c(C(F)(F)F)cccc12 (centres unmarked) [WR308387] |  |  |  | much higher | most active |  |
| OC(CNCCNCc1ccccc1)c1cc(C(F)(F)F)nc2c(C(F)(F)F)cccc12 (centres unmarked) [WR308396] | 1768 | 3.5 | 4.6 |  | acceptable potency | IC90 ([2]; W2, read-out: IC90 W2): 0.006 mg/L (≈ 0.0131 µM) |
| COCCNCC(O)c1cc(C(F)(F)F)nc2c(C(F)(F)F)cccc12 (centres unmarked) [WR308412] |  |  |  | much higher | most active |  |
| OC(CNC1CCNC1)c1cc(C(F)(F)F)nc2c(C(F)(F)F)cccc12 (centres unmarked) [WR308781] | 689 | 5.6 | 3.3 |  |  | IC90 ([2]; W2, read-out: IC90 W2): > 0.5 mg/L |
| OC(CNC1CCCNC1)c1cc(C(F)(F)F)nc2c(C(F)(F)F)cccc12 (centres unmarked) [WR318744] | 593 | 3.5 | 17 |  |  | IC90 ([2]; W2, read-out: IC90 W2): > 0.5 mg/L |
| CCCCNCCNCC(O)c1cc(C(F)(F)F)nc2c(C(F)(F)F)cccc12 (centres unmarked) [WR318746] | 431 | 3.8 | 2.4 |  |  | IC90 ([2]; W2, read-out: IC90 W2): 0.069 mg/L (≈ 0.163 µM) |
| OC(CNCC12CCC(C1)NC2)c1cc(C(F)(F)F)nc2c(C(F)(F)F)cccc12 (centres unmarked) [WR319535] | 145 | 0.45 | 2.7 | acceptable | modest potency | Half-life relative to mefloquine [3]: longer than mefloquine |
